# Reference: patent publication US6335306B1, “Thermosensitive recording material of heat fixing type and method of fixing the same” (Oji Paper Co., Ltd., priority 1998, dated 2002)
# Structures can show the parent of a compound that is named as a salt.
# Assay: Color Developer Test Method: solvent resistance of the color image, salad oil (Mds)
# Format: physicochemical
# Settings: colored portion coated with salad oil, wiped, left standing 0.5 hour; Macbeth RD-914
# Description: (§1) Thermosensitive recording paper sheet is prepared by a process which will be described below.
# (§2) The above-described composition is pulverized with a paint shaker to an average particle diameter of about 1 μm.
# (§3) The above-described composition is pulverized with a paint shaker to an average particle diameter of not larger than 1 μm.
# (§4) The above-described composition is pulverized with a paint shaker to an average particle article diameter of not larger than 1 μm.
# (§5) A coating liquid is obtained by mixing 60 parts of the dispersion A, 240 parts of the dispersion B, 80 parts of the dispersion C, and 90 parts of 10% aqueous polyvinyl alcohol solution under stirring. The coating liquid thus obtained is applied to the support so that the amount of the coating after drying would be 8.0 g/m^2 to form a thermosensitive color image-forming layer, and thereby to obtain a thermosensitive recording paper.
# (§6) The sample thus obtained is printed with a coloring tester (THPMD; a product of Ohkura Electric Co., Ltd.) under conditions comprising a printing voltage of 21.7 V and printing pulse of 1.0 ms. The color density of the printed parts is determined with a Macbeth Reflection Color Density Tester RD-914 (a product of Macbeth).
# (§7) The colored portion of the thermosensitive recording material thus obtained in (5) is coated with dioctyl phthalate or salad oil, which is then removed by wiping with Klinex, followed by leaving it for standing for 0.5 hour and measuring the density of the printed parts is determined with a Macbeth Reflection Color Density Tester RD-914 (a product of Macbeth).
# (§8) The solvent resistance of the color image formed by using the color developer can be evaluated based on the Macbeth density (hereinafter referred to as “Mdd”) of 0.2 or higher, preferably 0.4 or higher according to the Color Developer Test Method as stated above wherein dioctyl phthalate is used. The solvent resistance of the color image formed using the color developer can be evaluated based on the Macbeth density (hereinafter referred to as “Mds”) of 0.5 or higher, preferably 0.6 or higher according to the Color Developer Test Method as stated above wherein salad oil is used.
row,Mds (Macbeth density of the printed part after coating with salad oil),Structure (SMILES)
1,0.5,"O=C(Nc1ccc(Cc2ccc(NC(=O)NS(=O)(=O)c3cccc4ccccc34)cc2)cc1)NS(=O)(=O)c1cccc2ccccc12 [4,4′-bis(1-naphthalenesulfonylaminocarbonylamino) diphenyl methane]"
2,0.84,"Cc1ccc(S(=O)(=O)NC(=O)Nc2ccc(NC(=O)NS(=O)(=O)c3ccc(C)cc3)cc2)cc1 [1,4-bis(p-toluenesulfonylaminocarbonylamino)benzene]"
3,1.2,"Cc1ccc(S(=O)(=O)NC(=O)Nc2cccc(NC(=O)NS(=O)(=O)c3ccc(C)cc3)c2)cc1 [1,3-bis(p-toluenesulfonylaminocarbonylamino)benzene]"
4,1.05,"Cc1ccc(S(=O)(=O)NC(=O)Nc2cccc3c(NC(=O)NS(=O)(=O)c4ccc(C)cc4)cccc23)cc1 [1,5-bis(p-toluenesulfonylaminocarbonylamino)naphthalene]"
5,0.73,"Cc1ccc(S(=O)(=O)NC(=O)Nc2cccc3cccc(NC(=O)NS(=O)(=O)c4ccc(C)cc4)c23)cc1 [1,8-bis(p-toluenesulfonylaminocarbonylamino)naphthalene]"
6,0.6,"O=S(=O)(c1ccccc1)c1ccc(O)c(S(=O)(=O)c2ccccc2)c1 [2,4-bis(phenylsulfonyl)phenol]"

# Assay: log P, OECD Chemical Test Guideline No. 117, partition coefficient
# Settings: OECD Guideline No. 117
# Description: The log P in the present invention is a value determined according to OECD Test, Chemical Test Guideline No. 117, Partition Coefficient; edited by Chemical Product Examination Association). The log P is the logarithm of the partition coefficient P. The higher the value of the partition coefficient, the higher the hydrophobicity; and the lower thereof, the higher the hydrophilicity.
row,log P,Structure (SMILES)
1,3.3,"C=CCOc1ccc(S(=O)(=O)c2ccc(OCC=C)cc2)cc1 [4,4′-diallyloxydiphenylsulfone]"
2,5.8,O=C(CCCCC(=O)OCc1ccccc1Cl)OCc1ccccc1Cl [di-o-chlorobenzyl adipate]

# Same assay, conditions: n-octanol/water
row,chromatographic logP,Structure (SMILES)
1,5.1,O=C(Oc1ccccc1)c1ccc2ccccc2c1O [phenyl 1-hydroxy-2-naphthoate]
2,2.9,COc1ccc(OCCOCCOc2ccc(OC)cc2)cc1 [bis(2-(4-methoxyphenoxy)ethyl) ether]
3,5.7,O=C(OCc1ccccc1)c1ccc(C(=O)OCc2ccccc2)cc1 [dibenzyl terephthalate]
4,0.2,CC(=O)CC(=O)Nc1ccccc1Cl [o-chloroacetoacetoanilide]
5,3.1,Cc1ccc(OS(=O)(=O)c2c(C)cc(C)cc2C)cc1 [p-tolyl mesitylenesulfonate]
6,6.3,c1ccc(Cc2ccc(-c3ccccc3)cc2)cc1 [p-benzylbiphenyl]

# Continued, compound first:
row,Structure (SMILES),chromatographic logP
1,"Cc1ccc(Oc2ccc(Oc3ccc(C)cc3)cc2)cc1 [1,4-bis(p-tolyloxy)benzene]",3.1
2,"Cc1cccc(OCCOc2cccc(C)c2)c1 [1,2-bis(m-tolyloxy)ethane]",5
3,c1ccc(OCCOc2ccc3ccccc3c2)cc1 [1-phenoxy-2-β-naphthoxyethane],5.2

# Same assay, conditions: n-octanol/water (OECD Test Guideline 117, HPLC method)
row,chromatographic logP,Structure (SMILES)
1,3.1,Cc1ccc(S(=O)(=O)Oc2ccccc2)cc1 [phenyl p-toluenesulfonate]
2,5.1,O=C(Oc1ccccc1)c1ccc2ccccc2c1O [phenyl 1-hydroxy-2-naphthoate]
3,3.1,O=C(OCc1ccccc1)C(=O)OCc1ccccc1 [dibenzyl oxalate]

# Continued, compound first:
row,Structure (SMILES),chromatographic logP
1,O=S(=O)(c1ccccc1)c1ccccc1 [diphenylsulfone],1.5
2,"c1ccc(OCCOc2ccccc2)cc1 [1,2-diphenoxyethane]",3.6

# Same assay, conditions: octanol/water
row,Structure (SMILES),chromatographic logP
1,c1ccc(-c2cccc(-c3ccccc3)c2)cc1 [m-terphenyl],6.16
2,"Cc1ccc(CCc2ccc(C)c(C)c2)cc1C [1,2-bis(3,4-dimethylphenyl)ethane]",7.8

# Assay: Color Developer Test Method: solvent resistance of the color image, dioctyl phthalate (Mdd)
# Format: physicochemical
# Settings: colored portion coated with dioctyl phthalate, wiped, left standing 0.5 hour; Macbeth RD-914
# Description: as §1, §2, §3, §4, §5, §6, §7, §8
row,Mdd (Macbeth density of the printed part after coating with dioctyl phthalate),Structure (SMILES)
1,1.0,"Cc1ccc(S(=O)(=O)NC(=O)Nc2ccc(Cc3ccc(NC(=O)NS(=O)(=O)c4ccc(C)cc4)cc3)cc2)cc1 [4,4′-bis(p-toluenesulfonylaminocarbonylamino)diphenylmethane]"
2,0.5,COc1ccc(OCCOc2ccc(C(=O)O)c(O)c2)cc1 [4-(2-(p-methoxyphenyloxy)ethyloxy)salicylic acid]

# Continued, compound first:
row,Structure (SMILES),Mdd (Macbeth density of the printed part after coating with dioctyl phthalate)
1,"Cc1ccccc1S(=O)(=O)NC(=O)Nc1ccc(Cc2ccc(NC(=O)NS(=O)(=O)c3ccccc3C)cc2)cc1 [4,4′-bis(o-toluenesulfonylaminocarbonylamino)diphenyl methane]",1.0
2,"O=C(Nc1ccc(Cc2ccc(NC(=O)NS(=O)(=O)c3ccccc3)cc2)cc1)NS(=O)(=O)c1ccccc1 [4,4′-bis(benzenesulfonylaminocarbonylamino)diphenyl methane]",0.8
3,"Cc1ccc(S(=O)(=O)NC(=O)Nc2ccc(Oc3cccc(NC(=O)NS(=O)(=O)c4ccc(C)cc4)c3)cc2)cc1 [3,4′-bis(p-toluenesulfonylaminocarbonylamino)diphenyl ether]",0.93
4,"Cc1ccc(S(=O)(=O)NC(=O)Nc2ccc(Oc3cccc(Oc4ccc(NC(=O)NS(=O)(=O)c5ccc(C)cc5)cc4)c3)cc2)cc1 [1,3-bis(4′-(p-toluenesulfonylaminocarbonylamino)phenyloxy)benzene]",1.0
5,"Cc1ccc(S(=O)(=O)NC(=O)Nc2ccc(Sc3ccc(NC(=O)NS(=O)(=O)c4ccc(C)cc4)cc3)cc2)cc1 [4,4′-bis(p-toluenesulfonylaminocarbonylamino)diphenyl sulfide]",0.96
6,"CC(C)(c1ccc(O)cc1)c1ccc(O)cc1 [2,2-bis(4-hydroxyphenyl)propane, reference compound]",0.1
7,"Cc1ccc(S(=O)(=O)NC(=O)Nc2cccc(S(=O)(=O)c3cccc(NC(=O)NS(=O)(=O)c4ccc(C)cc4)c3)c2)cc1 [3,3′-bis(p-toluenesulfonylaminocarbonylamino)diphenylsulfone]",0.63
8,"Cc1ccc(S(=O)(=O)NC(=O)Nc2ccc(Oc3ccc(NC(=O)NS(=O)(=O)c4ccc(C)cc4)cc3)cc2)cc1 [4,4′-bis(p-toluenesulfonylaminocarbonylamino)diphenyl ether]",1.0
9,"Cc1ccc(S(=O)(=O)NC(=O)Nc2ccc(S(=O)(=O)c3ccc(NC(=O)NS(=O)(=O)c4ccc(C)cc4)cc3)cc2)cc1 [4,4′-bis(p-toluenesulfonylaminocarbonylamino)diphenylsulfone]",0.81

# Same assay, conditions: colored portion coated with dioctyl phthalate, wiped, left standing 0.5 hour; Macbeth RD-914; listed as 3,4′-bis(p-toluenesulfonylaminocarbonylamino)diphenyl ether
row,Mdd (Macbeth density of the printed part after coating with dioctyl phthalate),Structure (SMILES)
1,1.0,"Cc1ccc(S(=O)(=O)NC(=O)Nc2ccc(Oc3cccc(NC(=O)NS(=O)(=O)c4ccc(C)cc4)c3)cc2)cc1 [3,4′-bis(p-toluenesulfonylaminocarbonylamino)diphenyl ether]"
